Measurements as given in ChEMBL document CHEMBL1201862, “PubChem BioAssay data set” (2004).
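Interpolation was linear, between the two tested concentrations surrounding the appropriate level; five concentrations were tested over 48 hours in 96-well plates. Abbreviation: GI50, concentration required for 50% inhibition of growth.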 Activity calls are given as the source filed them. Cut-off read from the data, not from the text of the source: active = GI50 up to about 1.1 µM and inactive = higher.

What was measured:
Test in all cases: NCI tumour cell line growth inhibition, 48 h
OVCAR-8 = system: OVCAR-8
RXF 393 = system: RXF 393
HL-60 = system: HL-60
U-251 = system: U-251
NCI-H460 = system: NCI-H460
786-0 = system: 786-0
BT-549 = system: BT-549
LOX IMVI = system: LOX IMVI
IGROV-1 = system: IGROV-1
HCT-15 = system: HCT-15
MOLT-4 = system: MOLT-4
SNB-75 = system: SNB-75
CAKI-1 = system: CAKI-1
SK-OV-3 = system: SK-OV-3
CCRF-CEM = system: CCRF-CEM
K562 = system: K562
M14 = system: M14
NCI-H522 = system: NCI-H522
HT-29 = system: HT-29
SK-MEL-2 = system: SK-MEL-2
HOP-62 = system: HOP-62
SK-MEL-5 = system: SK-MEL-5
MDA-MB-435 = system: MDA-MB-435
Hs-578T = system: Hs-578T
UACC-257 = system: UACC-257
MDA-N = system: MDA-N
T47D = system: T47D
A549 = system: A549
RPMI-8226 = system: RPMI-8226
DU-145 = system: DU-145
MDA-MB-231 = system: MDA-MB-231
HCT-116 = system: HCT-116
MCF7 = system: MCF7
SF-268 = system: SF-268
HCC 2998 = system: HCC 2998
KM12 = system: KM12
OVCAR-5 = system: OVCAR-5
SN12C = system: SN12C
PC-3 = system: PC-3
TK-10 = system: TK-10
NCI/ADR-RES = system: NCI/ADR-RES
UO-31 = system: UO-31
SF-295 = system: SF-295
Malme-3M = system: Malme-3M
ACHN = system: ACHN
EKVX = system: EKVX
SNB-19 = system: SNB-19
SW-620 = system: SW-620
OVCAR-4 = system: OVCAR-4
COLO 205 = system: COLO 205
NCI-H226 = system: NCI-H226
NCI-H23 = system: NCI-H23
UACC-62 = system: UACC-62
HOP-92 = system: HOP-92
SK-MEL-28 = system: SK-MEL-28
A498 = system: A498
SF-539 = system: SF-539
SR = system: SR

Structure (SMILES): COC(=O)[C@H](Cc1ccccc1)NP(=O)(OCCC#N)OCC1OC(n2cc(C)c(=O)[nH]c2=O)CC1N=[N+]=[N-] (some centres undefined)
- GI50 (OVCAR-8): > 100 µM (inactive)
- GI50 (RXF 393): > 100 µM (inactive)
- GI50 (HL-60): > 100 µM (inactive)
- GI50 (U-251): > 100 µM (inactive)
- GI50 (NCI-H460): > 100 µM (inactive)
- GI50 (786-0): > 100 µM (inactive)
- GI50 (BT-549): > 100 µM (inactive)
- GI50 (LOX IMVI): > 100 µM (inactive)
- GI50 (IGROV-1): > 100 µM (inactive)
- GI50 (HCT-15): > 100 µM
- GI50 (MOLT-4): > 100 µM (inactive)
- GI50 (SNB-75): > 100 µM (inactive)
- GI50 (CAKI-1): > 100 µM (inactive)
- GI50 (SK-OV-3): > 100 µM (inactive)
- GI50 (CCRF-CEM): > 100 µM (inactive)
- GI50 (K562): > 100 µM (inactive)
- GI50 (M14): > 100 µM (inactive)
- GI50 (NCI-H522): 35 µM (inactive)
- GI50 (HT-29): > 100 µM (inactive)
- GI50 (SK-MEL-2): > 100 µM (inactive)
- GI50 (HOP-62): > 100 µM (inactive)
- GI50 (SK-MEL-5): > 100 µM (inactive)
- GI50 (MDA-MB-435): > 100 µM (inactive)
- GI50 (Hs-578T): > 100 µM (inactive)
- GI50 (UACC-257): > 100 µM (inactive)
- GI50 (MDA-N): > 100 µM (inactive)
- GI50 (T47D): > 100 µM (inactive)
- GI50 (A549): > 100 µM (inactive)
- GI50 (RPMI-8226): > 100 µM (inactive)
- GI50 (DU-145): > 100 µM (inactive)
- GI50 (MDA-MB-231): > 100 µM (inactive)
- GI50 (HCT-116): > 100 µM (inactive)
- GI50 (MCF7): > 100 µM (inactive)
- GI50 (SF-268): > 100 µM (inactive)
- GI50 (HCC 2998): > 100 µM (inactive)
- GI50 (KM12): > 100 µM (inactive)
- GI50 (OVCAR-5): > 100 µM (inactive)
- GI50 (SN12C): > 100 µM (inactive)
- GI50 (PC-3): > 100 µM (inactive)
- GI50 (TK-10): > 100 µM (inactive)
- GI50 (NCI/ADR-RES): > 100 µM (inactive)
- GI50 (UO-31): > 100 µM (inactive)
- GI50 (SF-295): > 100 µM (inactive)
- GI50 (Malme-3M): > 100 µM (inactive)
- GI50 (ACHN): > 100 µM (inactive)
- GI50 (EKVX): > 100 µM (inactive)
- GI50 (SNB-19): > 100 µM (inactive)
- GI50 (SW-620): > 100 µM (inactive)
- GI50 (OVCAR-4): > 100 µM (inactive)
- GI50 (COLO 205): > 100 µM (inactive)
- GI50 (NCI-H226): > 100 µM (inactive)
- GI50 (NCI-H23): > 100 µM (inactive)
- GI50 (UACC-62): > 100 µM (inactive)
- GI50 (HOP-92): > 100 µM (inactive)

Structure (SMILES): CNc1nncc2[nH]cnc12
- GI50 (OVCAR-8): > 100 µM (inactive)
- GI50 (RXF 393): > 100 µM (inactive)
- GI50 (HL-60): 32.4 µM (inactive)
- GI50 (U-251): > 100 µM (inactive)
- GI50 (786-0): > 100 µM (inactive)
- GI50 (BT-549): > 100 µM (inactive)
- GI50 (LOX IMVI): > 100 µM (inactive)
- GI50 (IGROV-1): > 100 µM (inactive)
- GI50 (HCT-15): > 100 µM
- GI50 (MOLT-4): > 100 µM (inactive)
- GI50 (SNB-75): > 100 µM (inactive)
- GI50 (CAKI-1): > 100 µM (inactive)
- GI50 (SK-OV-3): > 100 µM (inactive)
- GI50 (CCRF-CEM): > 100 µM (inactive)
- GI50 (HT-29): > 100 µM (inactive)
- GI50 (SK-MEL-5): > 100 µM (inactive)
- GI50 (MDA-MB-435): > 100 µM (inactive)
- GI50 (Hs-578T): > 100 µM (inactive)
- GI50 (UACC-257): > 100 µM (inactive)
- GI50 (MDA-N): > 100 µM (inactive)
- GI50 (T47D): > 100 µM (inactive)
- GI50 (RPMI-8226): > 100 µM (inactive)
- GI50 (DU-145): > 100 µM (inactive)
- GI50 (MDA-MB-231): > 100 µM (inactive)
- GI50 (HCT-116): > 100 µM (inactive)
- GI50 (MCF7): > 100 µM (inactive)
- GI50 (SF-268): > 100 µM (inactive)
- GI50 (KM12): > 100 µM (inactive)
- GI50 (SK-MEL-28): > 100 µM (inactive)
- GI50 (SN12C): > 100 µM (inactive)
- GI50 (TK-10): > 100 µM (inactive)
- GI50 (A498): > 100 µM (inactive)
- GI50 (UO-31): > 100 µM (inactive)
- GI50 (ACHN): > 100 µM (inactive)
- GI50 (EKVX): > 100 µM (inactive)
- GI50 (SNB-19): > 100 µM (inactive)
- GI50 (SW-620): > 100 µM (inactive)
- GI50 (COLO 205): > 100 µM (inactive)
- GI50 (UACC-62): > 100 µM (inactive)
- GI50 (HOP-92): > 100 µM (inactive)

Structure (SMILES): COc1ccc(-c2nc(N(C)C)c3ccccc3n2)cc1
- GI50 (OVCAR-8): 11.3 µM (inactive)
- GI50 (RXF 393): 9.29 µM (inactive)
- GI50 (HL-60): 12.4 µM (inactive)
- GI50 (U-251): 20.5 µM (inactive)
- GI50 (NCI-H460): 10.8 µM (inactive)
- GI50 (786-0): 10.9 µM (inactive)
- GI50 (BT-549): 14.2 µM (inactive)
- GI50 (LOX IMVI): 11 µM (inactive)
- GI50 (IGROV-1): 9.55 µM (inactive)
- GI50 (HCT-15): 12.1 µM
- GI50 (MOLT-4): 3.91 µM (inactive)
- GI50 (SNB-75): 13.5 µM (inactive)
- GI50 (CAKI-1): 14 µM (inactive)
- GI50 (SK-OV-3): 15.8 µM (inactive)
- GI50 (K562): 13.9 µM (inactive)
- GI50 (M14): 14.1 µM (inactive)
- GI50 (NCI-H522): 7.96 µM (inactive)
- GI50 (SF-539): 20.4 µM (inactive)
- GI50 (HT-29): 5.51 µM (inactive)
- GI50 (SK-MEL-2): 20.5 µM (inactive)
- GI50 (HOP-62): 16.6 µM (inactive)
- GI50 (SK-MEL-5): 13.1 µM (inactive)
- GI50 (MDA-MB-435): 15.3 µM (inactive)
- GI50 (Hs-578T): 13.5 µM (inactive)
- GI50 (UACC-257): 16.4 µM (inactive)
- GI50 (MDA-N): 14.9 µM (inactive)
- GI50 (T47D): 10.8 µM (inactive)
- GI50 (A549): 6.1 µM (inactive)
- GI50 (RPMI-8226): 5.56 µM (inactive)
- GI50 (MDA-MB-231): 28.4 µM (inactive)
- GI50 (HCT-116): 4.57 µM (inactive)
- GI50 (MCF7): 11 µM (inactive)
- GI50 (SF-268): 15.9 µM (inactive)
- GI50 (HCC 2998): 6 µM (inactive)
- GI50 (KM12): 13.4 µM (inactive)
- GI50 (SK-MEL-28): 14.9 µM (inactive)
- GI50 (OVCAR-5): 14 µM (inactive)
- GI50 (SN12C): 7.89 µM (inactive)
- GI50 (PC-3): 24 µM (inactive)
- GI50 (TK-10): 18.3 µM (inactive)
- GI50 (NCI/ADR-RES): 5.09 µM (inactive)
- GI50 (UO-31): 3.36 µM (inactive)
- GI50 (SR): 10.8 µM (inactive)
- GI50 (SF-295): 14.2 µM (inactive)
- GI50 (Malme-3M): 16.8 µM (inactive)
- GI50 (ACHN): 7.64 µM (inactive)
- GI50 (EKVX): 3.66 µM (inactive)
- GI50 (SNB-19): 17.7 µM (inactive)
- GI50 (SW-620): 9.48 µM (inactive)
- GI50 (OVCAR-4): 32.6 µM (inactive)
- GI50 (COLO 205): 10.1 µM (inactive)
- GI50 (NCI-H226): 3.31 µM (inactive)
- GI50 (NCI-H23): 16 µM (inactive)
- GI50 (UACC-62): 12.7 µM (inactive)
- GI50 (HOP-92): 12.4 µM (inactive)
